Patent US7901681B2, “Trypanosome derived apoptotic factors (TAF)” (priority 2003, dated 2011)

Columns and labels:
mouse cerebellum = experiment: Mouse cerebellum apoptosis analysis (TUNEL of brain sections); format: in vivo, Balb/c mice; details: similar to that induced by T. brucei
Protocol: Murine African trypanosomiasis model. All animal-related procedures were carried out in strict accordance with the National Institutes of Health Guide for the Care and Use of Laboratory Animals and approved by the Morehouse School of Medicine's Animal Care and Use Committee. Male Balb/c mice (6-8 weeks of age) were maintained on a 12-hour-light/12-hour-dark cycle with access to food and water ad libitum. Mice were injected intra-peritoneally with parasitized blood (T. brucei L427) and groups of 10 were then sacrificed on days 0, 4, 6 and 8 post-infection (P.I.). Equal numbers of mice were sham-injected (with uninfected blood) as controls. All experiments were repeated twice at different times to ensure that the data were representative of each group, and took into account the potential individual-host variation in trypanosome-induced global gene expression. This murine trypanosomiasis model mimics the major clinical symptoms of HAT, with the infected mice developing fever, tremors, lethargy, weight loss, dyskinesia, convulsions, altered gait, and death by day 10 post injection (P.I.).
Mouse cerebellum and apoptosis analysis. […] The level of apoptosis visible in brain sections was determined semi-quantitatively as the mean numbers of TUNEL-positive (i.e. apoptotic) cells/cm^2 in 20 comparative fields of brain sections from infected and uninfected mice.

HBVEC = experiment: TUNEL assay, dose response of apoptosis in HBVEC; format: cell-based, human
Protocol: RBVEC Cell line: Human Brain Macrovascular Endothelial Cells (HBVEC) were obtained from Biowhittaker (Walkersville, Md.). They were grown in media made as per the instructions in the Complete Medium Kit (Cell Systems Corporation, Kirkland, Wash.). Briefly, 500 ml of Complete Medium was added to 10 ml of Attachment Factor (Cell Systems Corporation, Kirkland, Wash.). The medium is a liquid medium containing 10% serum and CSC Growth factor. Cell stocks were maintained in T25 flasks at 37° C. in a 5% CO2 incubator, and were harvested and passed at about 60-80% confluence. Experiments were performed on cells plated and grown for 24 to 48 hours on collagen-coated coverslips in 35 mm tissue culture dishes.
Terminal deoxynucleotidyl transferase dUTP nick-end labeling (TUNEL) assay. […] Cells on cover slips were washed with PBS, and fixed for 30 minutes at RT with 4% paraformaldehyde, in PBS, pH 7.4. […] Total cell counts were determined by counterstaining fixed cultures with 20:g/ml of Hoechst 33258. […]
Dose Response. The effect of Trypanosome conditioned serum containing medium-induced apoptosis was determined in HBVEC. […] Total cells, and fluorescent cells were counted for each field examined (10 fields per plate minimum). The percentage of TUNEL-labeled cells was calculated as the number of FITC-stained cells divided by the total number.of cells. […]

## AEGPEDKGLTKGGKGKGEKETKVQDEV (listed as Trypanosoma brucei) [ProEP2-1]
Mouse cerebellum
  induction of apoptosis in cerebella of mice: induce apoptosis
HBVEC
  induction of apoptosis in HBVEC: induce apoptosis
HBVEC; 24 hours
  dose dependence of TUNEL labeling of HBVEC: dose dependent
